Source: ChEMBL document CHEMBL1158234, “Halistanol disulfate B, a novel sulfated sterol from the sponge Pachastrella sp.: inhibitor of endothelin converting enzyme” (J Nat Prod, 1996)
Calls of active or inactive are those of the source. The calls are words filed in the database; no cut-off is given here.

Legend:
COS = experiment: (§1) Inhibition of recombinant ECE expressed in african green monkey COS cells assessed as endothelin formation by EIA assay; format: cell-based
[1] = as §1; format: cell-based

Compound	Activity (COS)	IC50 [1]
O=C(NCCSSCCNC(=O)/C(Cc1ccc(Br)c(OS(=O)(=O)O)c1)=N/O)/C(Cc1ccc(OS(=O)(=O)O)c(Br)c1)=N/O	Active	–
C=CCCC[C@@H](C)[C@H]1CC[C@H]2[C@@H]3CC[C@H]4C[C@H](OS(=O)(=O)O)[C@@H](OS(=O)(=O)O)C[C@]4(C)[C@H]3CC[C@]12C [HALISTANOL DISULFATE B]	–	2.1 µM
C=CCCC[C@@H](C)[C@H]1CC[C@H]2[C@@H]3CC[C@H]4C[C@H](O)[C@@H](O)C[C@]4(C)[C@H]3CC[C@]12C	inactive	–
C[C@H](CC[C@H](C)C(C)(C)C)[C@H]1CC[C@H]2[C@@H]3C[C@H](OS(=O)(=O)O)[C@H]4C[C@H](OS(=O)(=O)O)[C@@H](OS(=O)(=O)O)C[C@]4(C)[C@H]3CC[C@]12C	Active	–
O=C(NCCSSCCNC(=O)/C(Cc1cccc(OS(=O)(=O)O)c1Br)=N/O)/C(Cc1cc(Br)c(O)c(-c2ccc(C/C(=N\O)C(=O)NCCSSCCNC(=O)/C(Cc3ccc(OS(=O)(=O)O)c(Br)c3)=N/O)c(Br)c2O)c1)=N/O	Active	–
